Laboratory results from patent US20140271734A1, “BILE ACID RECYCLING INHIBITORS FOR TREATMENT OF BARRETT'S ESOPHAGUS AND GASTROESOPHAGEAL REFLUX DISEASE” (LUMENA PHARMACEUTICALS, INC., priority 2013, published 2014).
Marks after values point to notes of the source that are not given here.

Legend:
serum bile acids [1] = experiment: Serum bile acids, ascending multiple oral doses of LUM001 in healthy adults; type: in vivo, human; conditions: 28 days
Method: This Phase 1 study was a randomized, double-blind, placebo-controlled study of ascending multiple oral doses of LUM001 in healthy, adult subjects. This study was conducted at a single center. There were 13 LUM001 dosing panels: 10, 20, 60, 100, and 20 mg every morning (qAM) (2) (i.e., the regimen was tested a second time in the study), 5 mg every evening (qPM), 0.5, 1, 2.5, 5, 2.5 (2), 5 (2), and 0.5 to 5 mg qAM dose titration. Most of the dosing panels included subjects treated with matching placebo. No subject participated in more than 1 dosing panel. Subjects were randomized into the study by dosing panel, and all subjects within a dosing panel received study medication at approximately the same time each day. Safety was reviewed for each panel before subsequent panels were initiated. A total of 167 subjects were treated for 28 days, 147 with LUM001 and 20 with placebo. […]
On Day 1 of the Treatment Period, subjects who qualified for enrollment were randomized in the order in which they were admitted to the research facility. […] The safety and tolerability of LUM001 were evaluated by physical examination, ascertainment of adverse signs and symptoms, and clinical laboratory studies. […]
SBA were analyzed as part of the routine clinical analysis of the serum samples collected at each time point.

serum bile acids [2] = experiment: Fasting and post-prandial serum bile acids in children and adolescents on LUM001; type: in vivo, human
Method: LUM001 has been administered to forty patients under the age of 18 years old. […] The drug was administered once-a-day (QD) in the morning for fourteen days. […] These doses are similar to those using to treat patients with Barrett's esophagus or GERD.
The efficacy of LUM001 was determined by measuring total serum bile acids after eight days of dosing in children and adolescents under the age of eighteen. Thirty minutes before the next drug administration, at approximately 8 am in the morning, serum bile acid levels were measured. The child had refrained from food for 12 hours prior to this sample thus providing a fasted level of serum bile acid. After breakfast, serum bile acids were measured for up to the next 4 hours (8 am to noon) and the peak serum bile acid concentration noted.

[3] = Pharmacokinetics of LUM002 following single administration to rats; type: in vivo, Sprague Dawley Rat; conditions: for F: PO 20 mg/kg free acid, topmost estimate assuming 1 ng/mL over 24 h and dose-linear exposure
Method: To each rat either a single oral (PO; 20 mg/kg free acid) or a single intravenous (IV; 2 mg/kg free acid) dose of [^14Cl]LUM002 was administered. For PO and IV administration, the test substance was prepared with the adequate amount of water to reach a solution with a concentration of approximately 4 mg/g (PO) and 1 mg/g (IV). Oral administration was a gavage using a stomach tube and IV administration was a bolus injection into the tail vein. Exact doses administered to animals were calculated according to syringe weights.
The doses of radioactivity actually administered were determined by using standards prior to and after treatment of the animals. Blood—Animals were anaesthetized (Isoflurane) for blood sampling (3 animals/time point) and then euthanized by […]. Blood samples (maximal volume from each animal approx. 8 mL) were withdrawn from the abdominal aorta into containers containing a small amount of lithium heparin. and samples were centrifuged for 2 minutes at 1540 g. Aliquots (100 μL) of blood were used for hematocrit determination. Animals for the control groups (male and/or female) were used as predose animals for sampling of untreated biological samples (blood and plasma or liver, myocardium, kidneys only from male control animals). Plasma—To obtain plasma, blood samples were centrifuged for 10 minutes and stored cooled before final division.
Bioanalytical analysis—50 μL of plasma samples were placed into an 1.5 mL reaction tube. 5 μL methanol was added to each sample. For protein precipitation, 100 μL of the internal standard working solution (100 ng/mL of benzyl-13C6-LUM002 in acetonitrile) and 50 μL acetonitrile were added. In case of double blank samples, pure acetonitrile was added. Tubes were sealed and mixed thoroughly for 10 seconds. The tubes were centrifuged for 5 minutes at ≧3000 g. 50 μL of the clear supernatant was transferred into an autoinjector vial and were diluted with 50 μL deionized water. Analysis of samples was performed by using LC-MSMS (injection volume 50-75 μL) with a lower limit of quantification in the assay of 1 ng/mL for LUM002.

total serum bile acids = experiment: Plasma total serum bile acids in ZDF rats, week 3; type: in vivo; conditions: twice daily oral gavage
plasma triglycerides = experiment: Plasma triglycerides in ZDF rats, week 3; type: in vivo; conditions: twice daily oral gavage, no dose-related response
GLP-2 = GLP-2 in plasma of non-fasted ZDF rats, 2 weeks treatment; type: in vivo
plasma lipase = experiment: Plasma lipase in ZDF rats, week 3; type: in vivo; conditions: twice daily oral gavage
[4] = system: Alkaline Phosphatase (ALP); conditions: twice daily oral gavage; Week 3
Method: This study was conducted to determine the effects of two non-absorbed ASBTi compounds in the ZDF rat model after 3 weeks of treatment.
Animals were acclimatized for 5-7 days after arrival. […] The 2nd set of study was initiated after completion of the 1st. Test compound formulation prepared every other day and stored at 4° C. […] After 3rd week of treatment blood samples were collected by cardiac puncture from fasted animals for blood chemistry analysis: ALAT, ASAT, GGT, Alkaline Phosphatase and total Bile Acids. Tests were performed in contract clinical laboratory (Liver Profile SA320, Antech Diagnostics, Orange Country, Calif.).
Blood was collected by tail vein bleed weekly and after 3 weeks of treatment by cardiopuncture for serum tests. Data for each group is presented as the Mean Value±SEM. Statistically evaluation by t-test: *P<0.05, **P<0.01,***P<0.001 vs. vehicle group.

[5] = M, IV bolus injection 2 mg/kg free acid

CCCCC1(CCCC)CS(=O)(=O)c2ccc(N(C)C)cc2[C@@H](c2ccc(OCc3ccc(C[N+]45CCN(CC4)CC5)cc3)cc2)[C@H]1O [LUM001]
Serum bile acids (serum bile acids [1]): significant reduction in serum bile acids | Decrease of average fasting serum bile acid vs placebo patients (serum bile acids [2]; LUM001 treated patients): 24% | Decrease of average post-prandial peak serum bile acid vs placebo patients (serum bile acids [2]; LUM001 treated patients): 23% | Average post-prandial peak serum bile acid level (serum bile acids [2]; LUM001 treated patients (placebo 11.9)): 9.2 µmol/L | Morning Post-prandial peak serum bile acid (serum bile acids [2]; Patient 304, 1 mg, after eight days of dosing): 8.4 µmol/L | Morning Post-prandial peak serum bile acid (serum bile acids [2]; Patient 308, 1 mg, after eight days of dosing): 9.3 µmol/L | Morning Post-prandial peak serum bile acid (serum bile acids [2]; Patient 309, 1 mg, after eight days of dosing): 10.0 µmol/L | Morning Post-prandial peak serum bile acid (serum bile acids [2]; Patient 401, 2.5 mg, after eight days of dosing): 6.8 µmol/L | Fasting and post-prandial peak levels of serum bile acids (serum bile acids [2]; children and adolescents, after eight days of dosing): generally decrease both the fasting and post-prandial peak levels of serum bile acids

CCCC[C@]1(CC)CS(=O)(=O)c2ccc(N(C)C)cc2[C@@H](c2cccc(NC(=O)N[C@@H]3O[C@H](COS(=O)(=O)[O-])[C@@H](O)[C@H](OCc4ccccc4)[C@H]3O)c2)[C@H]1O.CCO.O.[K+] [LUM002, potassium((2R,3R,4S,5R,6R)-4-benzyloxy-6-{3-[3-((3S,4R,5R)-3-butyl-7-dimethylamino-3-ethyl-4-hydroxy-1,1-dioxo-2,3,4,5-tetrahydro-1H-benzo[b]thiepin-5-yl)-phenyl]-ureido}-3,5-dihydroxy-tetrahydro-pyran-2-ylmethyl)sulphate ethanolate, hydrate]
F ([3]; F): <1.3^e % | Cmax [3, 5]: 1036 ng/mL | Vss [3, 5]: 3.890 L/kg | t1/2 [3, 5]: 10.7 h | Tmax ([3]; M, IV bolus injection 2 mg/kg free acid, extrapolated to t = 0): 0^c h | F ([3]; M): <1.3^e % | LUM002 dose systemically absorbed ([3]; rats, single PO 20 mg/kg vs IV 2 mg/kg free acid): Less than 2% | Plasma total serum bile acids (SBA) (total serum bile acids): statistically significant reductions in SBA | Fasting plasma triglycerides (plasma triglycerides): statistically significant elevations | GLP-2 in plasma (GLP-2): significant elevations in GLP2 at higher doses | Plasma lipase (plasma lipase): statistically significant reductions in plasma lipase at higher doses | Plasma alkaline phosphatase (ALP) [4]: significant reductions in ALP
